This is an account of results in paper PMC5347425, “Small Molecule-Induced Domain Swapping as a Mechanism for Controlling Protein Function and Assembly” (Scientific Reports, 2017).

The test concerns the target T1, ribose binding protein (RBP) (Caldanaerobacter subterraneus, UniProt Q8RD41).
T1 construct: gene RbsB; RF125: RBP with human FKBP12 (V24A and C22A) inserted at position 125, without the NFM and CFM mutations
Briefly: isothermal titration calorimetry.

T1 sequence (Q8RD41 24-313): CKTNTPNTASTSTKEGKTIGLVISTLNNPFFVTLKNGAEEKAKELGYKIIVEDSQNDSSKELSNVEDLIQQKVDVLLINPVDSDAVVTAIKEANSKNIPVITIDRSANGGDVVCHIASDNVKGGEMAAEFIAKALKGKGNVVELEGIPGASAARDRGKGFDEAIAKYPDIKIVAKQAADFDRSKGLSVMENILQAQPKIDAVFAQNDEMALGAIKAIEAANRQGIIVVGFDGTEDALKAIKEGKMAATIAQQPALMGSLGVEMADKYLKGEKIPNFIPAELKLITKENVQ
T1 sequence (P62942 with tags, fused parts or gaps C23A/V25A partner): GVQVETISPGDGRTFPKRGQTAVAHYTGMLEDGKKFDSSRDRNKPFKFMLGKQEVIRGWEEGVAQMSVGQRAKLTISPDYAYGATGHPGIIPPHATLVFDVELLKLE

In turn, `O=C[C@H](O)[C@H](O)[C@H](O)CO` [ribose] had a dissociation constant (Kd) of 12.8 nM.
